Reference: the supplement of paper PMC10307832

Key:
Assay in all cases: relative viability (nuclei count vs DMSO), 5 days (fraction); higher = more cells survive
IA-LM = tested on: IA-LM
How it was run: (§1)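 Dosing by pin tool came one day after lung cancer cell lines were seeded in 1536-well plates, using either one drug or a fixed anchor-drug dose plus five library-drug doses (not always all listed) in √10 steps. After 5 days, nuclei were counted on 4× images. Relative viability is treated-well nuclei count divided by vehicle-well nuclei count, and values are medians of duplicate plates.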

Calu-6 = tested on: Calu-6
How it was run: as §1

NCI-H1299 = tested on: NCI-H1299
How it was run: as §1

EBC-1 = tested on: EBC-1
How it was run: as §1

NCI-H1437 = tested on: NCI-H1437
How it was run: as §1

NCI-H1703 = tested on: NCI-H1703
How it was run: as §1

NCI-H1648 = tested on: NCI-H1648
How it was run: as §1

A549 = tested on: A549
How it was run: as §1

Compound | relative viability (IA-LM; first compound 0.04 µM) | relative viability (IA-LM; first compound 0.1265 µM) | relative viability (IA-LM; first compound 0.4 µM) | relative viability (IA-LM; first compound 4 µM) | relative viability (Calu-6; first compound 0.04 µM) | relative viability (Calu-6; first compound 0.1265 µM) | relative viability (Calu-6; first compound 0.4 µM) | relative viability (Calu-6; first compound 4 µM) | relative viability (NCI-H1299; first compound 0.04 µM) | relative viability (NCI-H1299; first compound 0.1265 µM) | relative viability (NCI-H1299; first compound 0.4 µM) | relative viability (NCI-H1299; first compound 4 µM) | relative viability (EBC-1; first compound 0.04 µM) | relative viability (EBC-1; first compound 0.1265 µM) | relative viability (EBC-1; first compound 0.4 µM) | relative viability (EBC-1; first compound 4 µM) | relative viability (NCI-H1437; first compound 0.04 µM) | relative viability (NCI-H1437; first compound 0.1265 µM) | relative viability (NCI-H1437; first compound 0.4 µM) | relative viability (NCI-H1437; first compound 4 µM) | relative viability (NCI-H1703; first compound 0.04 µM) | relative viability (NCI-H1703; first compound 0.1265 µM) | relative viability (NCI-H1703; first compound 0.4 µM) | relative viability (NCI-H1703; first compound 4 µM) | relative viability (NCI-H1648; first compound 0.04 µM) | relative viability (NCI-H1648; first compound 0.1265 µM) | relative viability (NCI-H1648; first compound 0.4 µM) | relative viability (NCI-H1648; first compound 4 µM) | relative viability (A549; first compound 0.04 µM) | relative viability (A549; first compound 0.1265 µM) | relative viability (A549; first compound 0.4 µM) | relative viability (A549; first compound 4 µM) | relative viability (IA-LM; first compound 1.265 µM) | relative viability (Calu-6; first compound 1.265 µM) | relative viability (NCI-H1299; first compound 1.265 µM) | relative viability (EBC-1; first compound 1.265 µM) | relative viability (NCI-H1437; first compound 1.265 µM) | relative viability (NCI-H1703; first compound 1.265 µM) | relative viability (A549; first compound 1.265 µM)
C[C@@H]1CN(CC(=O)Nc2ccc3c(c2)Cc2cccc(-c4cc(=O)cc(N5CCOCC5)o4)c2S3)C[C@H](C)O1 + O=C(c1cc(Cc2n[nH]c(=O)c3ccccc23)ccc1F)N1CCN(C(=O)C2CC2)CC1 [Olaparib] (partner 8 µM) | 0.844 | 0.976 | 0.792 | 0.207 | 0.646 | 0.573 | 0.672 | 0.299 | 1.08 | 1 | 1.05 | 0.488 | 0.736 | 0.723 | 0.494 | 0.147 | 0.613 | 0.635 | 0.598 | 0.352 | 0.489 | 0.407 | 0.295 | 0.208 | 0.56 | 1.08 | 0.879 | 0.56 | 0.239 | 0.334 | 0.332 | 0.0917 |  |  |  |  |  |  | 
COc1cc(N2CCC(C(N)=O)CC2)ccc1Nc1nc(N)c(Cl)c(Nc2ccccc2S(=O)(=O)C(C)C)n1 [HG-5-88-01] + CC1(C)CCC(c2ccc(Cl)cc2)=C(CN2CCN(c3ccc(C(=O)NS(=O)(=O)c4ccc(N[C@H](CCN5CCOCC5)CSc5ccccc5)c(S(=O)(=O)C(F)(F)F)c4)cc3)CC2)C1 [Navitoclax] (partner 0.5 µM) | 0.835 | 0.794 | 0.731 | 0.802 | 0.958 | 0.86 | 0.717 | 0.46 | 1.03 | 1.08 | 1.03 | 1.02 | 0.407 | 0.457 | 0.427 | 0.217 | 1.1 | 1.11 | 1.05 | 1.02 | 0.719 | 1.22 | 1.2 | 0.762 |  |  |  |  | 1.23 | 1.21 | 1.07 | 0.687 | 0.825 | 0.693 | 1.06 | 0.241 | 1.04 | 0.926 | 0.87
COc1cc(N2CCC(C(N)=O)CC2)ccc1Nc1nc(N)c(Cl)c(Nc2ccccc2S(=O)(=O)C(C)C)n1 [HG-5-88-01] + CS(=O)(=O)CCNCc1ccc(-c2ccc3ncnc(Nc4ccc(OCc5cccc(F)c5)c(Cl)c4)c3c2)o1 [Lapatinib] (partner 2 µM) | 0.891 | 0.864 | 0.721 | 0.404 | 1.11 | 1.05 | 1.19 | 0.774 | 0.914 | 0.983 | 0.87 | 0.963 | 0.221 | 0.22 | 0.209 | 0.195 | 0.8 | 0.945 | 0.756 | 0.454 | 0.832 | 1.15 | 1.22 | 0.619 |  |  |  |  | 0.984 | 0.917 | 0.845 | 0.411 | 0.712 | 1.04 | 1.05 | 0.21 | 0.761 | 1.08 | 0.573
